Experimental data from patent US8722681B2, “N-sulfonyl thiazolylpiperazine derivatives and related N-sulfonyl heterocyclic derivatives for the treatment of neuro degenerative diseases” (NV reMYND, priority 2007, dated 2014).

Experiments:
M17-SYNwt cells [1] = assay: α-synuclein cytotoxicity assay (LDH leakage from paraquat-treated M17-SYNwt cells); format: cell-based, human; conditions: Table 2; for EC50: Homo sapiens, M17-SYNwt cells, paraquat 32 mM, 40 hours, LDH activity; for % inh. (percentage inhibition): inhibition of synuclein toxicity at most effective concentration relative to untreated paraquat cells
From the text: An α-synuclein expression plasmid was constructed by sub-cloning the NcoI/XhoI fragment from 212T-SYN(WT) (Griffioen et al., Biochem Biophys Acta (2006) 1762(3):312-318) containing the cDNA of human wild type α-synuclein correspondingly into a standard mammalian expression vector pcDNA3.1 resulting in plasmid pcDNA3.1-SYNwt. Plasmid pcDNA3.1 and pcDNA3.1-SYNwt were transfected to human neuroblastoma cells (ATCC No. CRL-2267) and independent clonal lines with the plasmids stably integrated into the genome were selected. […] Over-expression of α-synuclein in M17-SYNwt cell lines was confirmed by Western analysis.
(§1) Due to the high levels of α-synuclein M17-SYNwt cells are exquisitely sensitivity to paraquat, a well-known risk factor of synuclein-dependent neuronal degeneration. In degenerated or dead cells lactate dehydrogenase (LDH) is leaked out of the cells into the extracellular environment due to a loss of plasma-membrane integrity. This principle was used to determine cytotoxicity by quantifying the level of leaked LDH into the growth medium.
(§2) The detailed method for determining α-synuclein cytotoxicity was as follows: From appropriate precultures of M17 and M17-SYN cells were seeded at 50000 cells/cm^2 in Optimem Reduced Serum without phenol red (InVitrogen, Cat. 31985-047) supplemented with 5% fetal calf serum, 1 mM sodium pyruvate, 1×non-essential amino acids, 500 μg/ml G418 0.5×antibiotic/antimycotic. After 3 hours of incubation at 37° C./5% CO2 paraquat was added to the cells (final concentration of 32 mM), together with the test compound and the cells were further incubated for 40 hours. Subsequently, LDH activity was determined using Promega Cytotox 96 Non-Radioactive cytotoxicity assay, (Cat. G1780) according the supplier's instructions.
This α-synuclein expressing neuroblastoma cells made it possible to assess the ability of novel compounds to counteract α-synuclein cytotoxicity. […] Since this method monitors leaked LDH from degenerated or dead cells only non-toxic compounds will be identified as active inhibitors of α-synuclein-mediated cytotoxicity. Lack of toxicity is an important characteristic for compounds to be used as a medicament to patients in need. A compound was considered to be active in this test when it inhibits α-synuclein cytotoxicity by more than 25% relative to untreated M17-SYNwt cells at a concentration of 20 μg/mL or lower. In the experiments, the control group consisted of M17-SYNwt cells treated with DMSO, the untreated paraquat group consisted of M17-SYNwt cells treated with paraquat and DMSO, and the treated paraquat group consisted of M17-SYNwt cells treated with paraquat and the test compound dissolved in DMSO.
Percent inhibition was calculated as the synuclein toxicity inhibition by the compound in treated paraquat cells, relative to the synuclein cytotoxicity in untreated paraquat cells.
The compounds from table 1 were screened for activity using the α-synuclein cytotoxicity assay as described above. Dose responses were carried out on all compounds found to be active (10 point curves in duplicate).

M17-SYNwt cells [2] = format: cell-based, human; conditions: M17-SYNwt cells treated with paraquat; not seen in M17 cells; FIG. 1
From the text: as §1, §2

Structure (SMILES) | EC50 (M17-SYNwt cells [1]) [nM] | % inh. (percentage inhibition) (M17-SYNwt cells [1]) [%] | level of LDH leaked into the medium (M17-SYNwt cells [2])
COc1ccc(OC)c(S(=O)(=O)N2CCN(c3nc(-c4ccccc4)cs3)CC2)c1 [Compound 36, 1-(2,5-dimethoxyphenylsulfonyl)-4-(4-phenylthiazol-2-yl)piperazine] | 950 | 121 | –
COc1ccc(OC)c(S(=O)(=O)N2CCN(c3nc(-c4ccc(Cl)cc4)cs3)CC2)c1 [Compound 37, 1-(4-(4-chlorophenyl)thiazol-2-yl)-4-(2,5-dimethoxyphenylsulfonyl)piperazine] | 1290 | 74 | –
COc1ccc(-c2csc(N3CCN(S(=O)(=O)c4ccc(OC)c(OC)c4)CC3)n2)cc1 [Compound 38, 1-(3,4-dimethoxyphenylsulfonyl)-4-(4-(4-methoxyphenyl)thiazol-2-yl)piperazine] | 1060 | 65 | –
COc1ccc(-c2csc(N3CCN(S(=O)(=O)c4cc(OC)ccc4OC)CC3)n2)cc1 [Compound 39, 1-(2,5-dimethoxyphenylsulfonyl)-4-(4-(4-methoxyphenyl)thiazol-2-yl)piperazine] | 6750 | 107 | –
Cc1ccc(S(=O)(=O)N2CCN(c3nc(-c4ccccc4)cs3)CC2)cc1 [Compound 44, 1-(4-phenylthiazol-2-yl)-4-tosylpiperazine] | 197 | 72 | –
COc1ccc(S(=O)(=O)N2CCN(Cc3nc(-c4ccc(F)cc4)cs3)CC2)cc1 [Compound 47, 1-((4-(4-fluorophenyl)thiazol-2-yl)methyl)-4-(4-methoxyphenylsulfonyl)piperazine] | 39.9 | 86 | –
COc1ccc(S(=O)(=O)N2CCC(c3nc(-c4ccc(F)cc4)cs3)CC2)cc1 [Compound 48, 4-(4-(4-fluorophenyl)thiazol-2-yl)-1-(4-methoxyphenylsulfonyl)piperidine] | 49.4 | 90 | –
COc1ccc(S(=O)(=O)N2CCN(c3nc(-c4ccncc4)cs3)CC2)cc1 [Compound 49, 1-(4-methoxyphenylsulfonyl)-4-(4-(pyridin-4-yl)thiazol-2-yl)piperazine] | 75 | 114 | –
COc1ccc(F)cc1S(=O)(=O)N1CCN(c2nc(-c3ccc(C)cc3)cs2)CC1 [Compound 50, 1-(5-fluoro-2-methoxyphenylsulfonyl)-4-(4-(4-methylphenyl)thiazol-2-yl)piperazine] | 1770 | 104 | –
COc1cc(F)ccc1S(=O)(=O)N1CCN(c2nc(-c3ccc(C)cc3)cs2)CC1 [Compound 51, 1-(4-fluoro-2-methoxyphenylsulfonyl)-4-(4-(4-methylphenyl)thiazol-2-yl)piperazine] | 2500 | 88 | –
O=S(=O)(c1cccnc1)N1CCN(c2nc(-c3ccc(F)cc3)cs2)CC1 [Compound 54, 1-(4-(4-fluorophenyl)thiazol-2-yl)-4-(pyridin-3-ylsulfonyl)piperazine] | 1230 | 91 | –
Cc1n[nH]c(C)c1S(=O)(=O)N1CCN(c2nc(-c3ccc(F)cc3)cs2)CC1 [Compound 55, 1-(4-(4-fluorophenyl)thiazol-2-yl)-4-(3,5-dimethyl-1H-pyrazol-4-ylsulfonyl)piperazine] | 657 | 91 | –
O=S(=O)(c1ccc(Cl)s1)N1CCN(c2nc(-c3ccccc3)cs2)CC1 [Compound 56, 1-(5-chlorothiophen-2-ylsulfonyl)-4-(4-phenylthiazol-2-yl)piperazine] | 752 | 98 | –
COc1ccc(-c2csc(N3CCN(S(=O)(=O)c4cccs4)CC3)n2)cc1 [Compound 57, 1-(thiophen-2-ylsulfonyl)-4-(4-(4-methoxyphenyl)thiazol-2-yl)piperazine] | 721 | 88 | –
O=S(=O)(c1cccs1)N1CCN(c2nc(-c3ccc(Cl)cc3)cs2)CC1 [Compound 58, 1-(thiophen-2-ylsulfonyl)-4-(4-(4-chlorophenyl)thiazol-2-yl)piperazine] | 3750 | 99 | –
O=[N+]([O-])c1ccc(-c2csc(N3CCN(S(=O)(=O)c4cccs4)CC3)n2)cc1 [Compound 60, 1-(thiophen-2-ylsulfonyl)-4-(4-(4-nitrophenyl)thiazol-2-yl)piperazine] | 1240 | 79 | –
O=S(=O)(N1CCCC1)N1CCN(c2nc(-c3ccccc3)cs2)CC1 [Compound 61, 1-(4-phenylthiazol-2-yl)-4-(pyrrolidin-1-ylsulfonyl)piperazine] | 1740 | 127 | –
Cc1ccc(-c2csc(N3CCN(S(=O)(=O)N4CCCC4)CC3)n2)cc1 [Compound 62, 1-(4-(4-methylphenyl)thiazol-2-yl)-4-(pyrrolidin-1-ylsulfonyl)piperazine] | 1930 | 112 | –
COc1ccc(-c2csc(N3CCN(S(=O)(=O)N4CCCC4)CC3)n2)cc1 [Compound 63, 1-(4-(4-methoxyphenyl)thiazol-2-yl)-4-(pyrrolidin-1-ylsulfonyl)piperazine] | 3180 | 69 | –
O=S(=O)(c1ccc2c(c1)OCCO2)N1CCN(c2nc(-c3ccccc3)cs2)CC1 [Compound 69, 1-(2,3-dihydrobenzo[b][1,4]dioxin-6-ylsulfonyl)-4-(4-phenylthiazol-2-yl)piperazine] | 434 | 89 | –
COc1ccc(-c2csc(N3CCN(S(=O)(=O)c4ccc5c(c4)OCCO5)CC3)n2)cc1 [Compound 70, 1-(2,3-dihydrobenzo[b][1,4]dioxin-6-ylsulfonyl)-4-(4-(4-methoxyphenyl)thiazol-2-yl)piperazine] | 1960 | 83 | –
O=[N+]([O-])c1ccc(-c2csc(N3CCN(S(=O)(=O)c4ccc5c(c4)OCCO5)CC3)n2)cc1 [Compound 71, 1-(2,3-dihydrobenzo[b][1,4]dioxin-6-ylsulfonyl)-4-(4-(4-nitrophenyl)thiazol-2-yl)piperazine] | 1440 | 77 | –
O=[N+]([O-])c1cccc(-c2csc(N3CCN(S(=O)(=O)c4ccc5c(c4)OCCO5)CC3)n2)c1 [Compound 72, 1-(2,3-dihydrobenzo[b][1,4]dioxin-6-ylsulfonyl)-4-(4-(3-nitrophenyl)thiazol-2-yl)piperazine] | 23500 | 85 | –
O=S(=O)(c1cccc2nonc12)N1CCN(c2nc(-c3ccc(F)cc3)cs2)CC1 [Compound 74, 4-(4-(4-(4-fluorophenyl)thiazol-2-yl)piperazin-1-ylsulfonyl)benzo[c][1,2,5]oxadiazole] | 233 | 41 | –
O=S(=O)(c1ccc2ccccc2c1)N1CCN(c2nc(-c3ccc(Cl)cc3)cs2)CC1 [Compound 75, 1-(4-(4-chlorophenyl)thiazol-2-yl)-4-(naphthalen-2-ylsulfonyl)piperazine] | 870 | 84 | –
COc1ccccc1-c1csc(N2CCN(S(=O)(=O)c3cccc4c3ccn4C)CC2)n1 [Compound 77, 4-(4-(4-(2-methoxyphenyl)thiazol-2-yl)piperazin-1-ylsulfonyl)-1-methyl-1H-indole] | 257 | 69 | –
Cc1ccc(S(=O)(=O)N2CCN(c3nc(-c4cccs4)cs3)CC2)cc1 [Compound 78, 1-(4-(thiophen-2-yl)thiazol-2-yl)-4-tosylpiperazine] | 316 | 84 | –
C[n+]1ccc(-c2cc[n+](C)cc2)cc1 [paraquat] | – | – | relatively high level
